The test system of this assay is NL-RLuc virus. The assay is described as follows: Inhibition of HIV Replication (NL-RLuc luciferase reporter virus in MT-2 cells). Format: cell-based. The settings on record: Human immunodeficiency virus 1, MT2, 120 h. In outline:
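Replication-competent virus with Renilla luciferase in place of part of nef, made in 293T cells and titered in MT-2 cells. Infected MT-2 cells grown 5 days with serially diluted compound in RPMI 1640/10% FBS, 10 mM HEPES pH 7.55. Luciferase read-out; EC50 from median effect equation, at least 2 experiments.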
(A reporter such as luciferase makes a cellular process visible.)
By EC50 is commonly meant the midpoint of the concentration-response curve. The compound `CCC1(C)CCN(c2c(-c3ccc(OCCc4ccc(F)cc4)cc3)c(C)nc(C)c2[C@H](OC(C)(C)C)C(=O)O)CC1` [Example 75, (S)-2-(tert-butoxy)-2-(4-(4-ethyl-4-methylpiperidin-1-yl)-5-(4-(4-fluorophenethoxy)phenyl)-2,6-dimethylpyridin-3-yl)acetic acid] returned an EC50 of 4 nM.

`Cc1nc(C)c([C@H](OC(C)(C)C)C(=O)O)c(N2CCC(C)CC2)c1-c1ccc(OCCc2ccc(F)cc2)cc1` [Example 76, (S)-2-(tert-butoxy)-2-(5-(4-(4-fluorophenethoxy)phenyl)-2,6-dimethyl-4-(4-methylpiperidin-1-yl)pyridin-3-yl)acetic acid] registered an EC50 of 17 nM. With `COC1(C)CCN(c2c(-c3ccc(OCCc4ccc(F)cc4)cc3)c(C)nc(C)c2[C@H](OC(C)(C)C)C(=O)O)CC1` [Example 77, (S)-2-(tert-butoxy)-2-(5-(4-(4-fluorophenethoxy)phenyl)-4-(4-methoxy-4-methylpiperidin-1-yl)-2,6-dimethylpyridin-3-yl)acetic acid], the EC50 turned out to be 2 nM. Consider `Cc1nc(C)c([C@H](OC(C)(C)C)C(=O)O)c(N2CCC(C)(C#N)CC2)c1-c1ccc(OCCc2ccc(F)cc2)cc1` [Example 78, (S)-2-(tert-butoxy)-2-(4-(4-cyano-4-methylpiperidin-1-yl)-5-(4-(4-fluorophenethoxy)phenyl)-2,6-dimethylpyridin-3-yl)acetic acid], for which the EC50 is 4 nM. As for `CC(C)=C1CCN(c2c(-c3ccc(OCCc4ccc(F)cc4)cc3)c(C)nc(C)c2[C@H](OC(C)(C)C)C(=O)O)CC1` [Example 79, (S)-2-(tert-butoxy)-2-(5-(4-(4-fluorophenethoxy)phenyl)-2,6-dimethyl-4-(4-(propan-2-ylidene)piperidin-1-yl)pyridin-3-yl)acetic acid], the EC50 was 291 nM. Under `Cc1nc(C)c([C@H](OC(C)(C)C)C(=O)O)c(N2CCC(Cc3ccccc3)CC2)c1-c1ccc(OCCc2ccc(F)cc2)cc1` [Example 80, (S)-2-(4-(4-benzylpiperidin-1-yl)-5-(4-(4-fluorophenethoxy)phenyl)-2,6-dimethylpyridin-3-yl)-2-(tert-butoxy)acetic acid] stands 1770 nM. Compound `Cc1nc(C)c([C@H](OC(C)(C)C)C(=O)O)c(N2CCC(C)(F)CC2)c1-c1ccc(OCCc2ccc(F)cc2)cc1` [Example 81, (S)-2-(tert-butoxy)-2-(4-(4-fluoro-4-methylpiperidin-1-yl)-5-(4-(4-fluorophenethoxy)phenyl)-2,6-dimethylpyridin-3-yl)acetic acid] displayed a concentration giving a half-maximal response (EC50) of 4 nM.

Consider `Cc1nc(C)c([C@H](OC(C)(C)C)C(=O)O)c(N2CC(C)CC(C)C2)c1-c1ccc(OCCc2ccc(F)cc2)cc1` (some centres unmarked) [Example 82], for which a half-maximal response (EC50) required 5430 nM.

The values are drawn from patent US9193720B2, “Pyridin-3-yl acetic acid derivatives as inhibitors of human immunodeficiency virus replication” (priority 2014, dated 2015).
